The subject of data set [1] is LCLC-97TM1 cells. Briefly: Proliferation assay in LCLC-97TM1 cells. Conditions: Homo sapiens, 144 h, Alamar Blue, read-out: LCLC97TM1 proliferation assay, EC50[M] (arithmetic mean). The format is cell-based. As for the experimental part: For measurements cell lines were plated at the below indicated concentration per […] in 96-well plates in a humidified incubator at 37° C. and 5% CO2.
ZR-75-1 (ATCC, CRL-1500; breast carcinoma); 3000 cells per well; culture medium: RPMI 1640 (Biochrom #FG 1215) medium containing 2.5% FBS (Biochrom #S0615). LCLC-97TM1 (DSMZ, ACC 388; large cell lung carcinoma); 6000 cells per well; culture medium: RPMI 1640 (Biochrom #FG 1215) medium containing 2.5% FBS (Biochrom #S0615). MDA-MB-436 (CLS, 300278; breast adenocarcinoma); 3000 cells per well; culture medium: DMEM/Ham's F12 (Biochrom #FG 4815) medium containing 2.5% FBS (Biochrom #S0615).
Each sample was prepared as triplicate and rim wells were excluded. Plates were incubated at 37° C. and 5% CO2 for 144 h. Cell viability was measured by adding 10 μL of Alamar Blue Reagent (Invitrogen #DAL 1100) and plates were incubated for 2 h at 37° C. and 5% CO2. Fluorescence was measured at 590 nm wavelength with a Tecan Spark or Victor X3 MTP-Reader (PerkinElmer).
(In general: Resazurin is reduced to fluorescent resorufin, in cell work by metabolically active cells.)

Data set [2] relates to ESR1 transcription in MVLN cells. Briefly: Repression of ESR1 transcription, MVLN luciferase reporter assay. Conditions: Homo sapiens, luciferase signal after 24 h, read-out: MVLN reporter assay, IC50[M] (arithmetic mean). The format is cell-based. In outline: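 MVLN cells stably carry an ER-responsive vitellogenin A2 element driving luciferase. After 24 h of compound treatment, luciferase was read in lysate as the measure of ERα transcription. Alamar Blue fluorescence (530/590 nm, 2 h) was read first to control for cell loss; samples were run in duplicate.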

The target of data set [3] is T1, KAT6A (Homo sapiens, UniProt Q92794).
T1 construct: Recombinant human His-tagged Kat6a protein (amino acids 194-810); His; made in house; host or cells: Baculovirus-infected Sf9 insect cells
Kind of data set: Kat6a activity assay (TR-FRET, acetylation of biotinylated histone H4 peptide). The conditions noted are these: recombinant human His-tagged Kat6a (amino acids 194-810), 60 mins at 22° C., read-out: KAT6A-DPF/HAT domain IC50 [mol/l] (arithmetic mean). In kind it is biochemical. In outline:
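His-tagged human Kat6a (aa 194-810, Sf9-expressed) with compound (0.01-20 μM) for 60 min at 22° C., pH 8 Tris buffer, 220 nM biotinylated H4 peptide (aa 1-24) and 600 nM acetyl-CoA. Acetyl-K8 detected by Eu-antibody/SA-XL665 TR-FRET (665/620 nm ratio); IC50 from 4-parameter fit.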
In general terms: In TR-FRET formats the signal depends on donor and acceptor labels being close together.

The subject of data set [4] is ZR-75-1 cells. Briefly: Proliferation assay in ZR-75-1 cells. Conditions: Homo sapiens, 144 h, Alamar Blue, read-out: ZR75-1 proliferation assay, EC50[M] (arithmetic mean). In kind it is cell-based. In outline: (§1)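 KAT6A-amplified ZR-75-1 cells (RPMI 1640, 2.5% FBS) and KAT6A-low MDA-MB-436 cells (DMEM/Ham's F12, 2.5% FBS) were seeded at 3000 cells/well. Treatment lasted 144 h at 37 °C, 5% CO2, in triplicate. Viability was read by Alamar Blue (2 h) fluorescence at […].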

Data set [5] deals with MDA-MB-436 cells. Kind of data set: Proliferation assay in MDA-MB-436 cells (negative control cell line). The format is cell-based. The conditions noted are these: Homo sapiens, 144 h, Alamar Blue, read-out: MDA-MB-436 proliferation assay, EC50[M] (arithmetic mean). In outline:
as §1

In data set [6] the target is T2, KAT6B (Homo sapiens, UniProt Q8WYB5).
T2 construct: fused on or other part: N-terminal GST tag
Kind of data set: Kat6b activity assay (TR-FRET, acetylation of biotinylated histone H4 peptide). Conditions: recombinant human GST-tagged Kat6b (431-end), 30 mins at 22° C., read-out: KAT6B activity assay IC50 [mol/l] (arithmetic mean). In kind it is biochemical. From the text: Kat6b inhibitory activities of the compounds described in the present invention were quantified using a Fluorescence Resonance Energy Transfer (TR-FRET) assay which measures acetylation of a synthetic, biotinylated Histone-H4-derived peptide by the enzyme.
Recombinant human GST-tagged Kat6b protein (431-end, N-terminal GST-tag), purified from Baculovirus-infected insect cells (Sf9), was purchased from SignalChem (#K315-381BG). Histone H4 peptide (amino acids 1-24, […]-VLRD-K(Btn)-amide), which was used as substrate, was synthesized by Biosyntan GmbH, Berlin, Germany. Acetyl Coenzyme A was purchased from Sigma-Aldrich (#A-2056).
Kat6b was incubated for 30 mins at 22° C. in the presence of different concentrations of test substances (0 μM, and within the range 0.01-20 μM) in assay buffer [25 mM Tris/HCl pH 8, 1 mM EGTA, 2.5 mM Glutathion, 0.02% Chicken Albumin, 0.05% Pluronic F127, 25 mM NaCl, 500 nM H4 peptide and 600 nM Acetyl Coenzyme A].
The reaction was stopped by addition of Detection Solution (25 mM HEPES pH 7.5, 0.1% BSA, 22 nM SAXL665 (Cisbio #610SAXLE), 100 μM Anacardic Acid (Enzo #ALX-270-381), 1 nM Anti-Histone H4 (ACETYL K8) Antibody (ABCAM #AB15823), 0.5 nM Anti-Rabbit IgG Eu (Perkin Elmer #AD0083).
The fluorescence emission at 620 nm and 665 nm after excitation at 330-350 nm was measured in a TR-FRET measuring instrument, for instance a Rubystar or a Pherastar (both from BMG Lab Technologies, Offenburg, Germany) or a Viewlux (Perkin-Elmer). The ratio of the emission at 665 nm and at […] was used as indicator of the amount of acetylated peptide.
The resulting data (ratio) were normalized, taking 0% inhibition as the mean value of control measurements where all reagents were included. In this case 50 nl DMSO were used instead of compounds. […] IC50 values were determined by regression analysis based on a 4 parameter equation (minimum, maximum, ICM, Hill; Y=Max+(Min−Max)/(1+(X/ICso) Hill) using the Screener Software (Genedata).

The subject of data set [7] is Salmonella tester strain TA100. Briefly: Bacterial reverse gene mutation test Ames MPF Penta I, TA100. In kind it is cell-based. An excerpt:
(§2) The employed commercial assay Ames MPF Penta I comprises the histidine auxotrophic Salmonella tester strains TA98, TA100, TA1535, TA1537 and two tryptophan auxotrophic tester strains E. coli wp2 (E. coli wp2 [pKM101] and E. coli wp2 uvrA, combined exposure). These strains meet the requirements of the OECD guideline 471 for testing chemicals.
(§3) Bacterial strains were exposed to various concentrations of the test compounds in a histidine (His) or tryptophane (Trp) deficient medium. As recommended by ICH S2(R1) guideline, the test was conducted in two assay conditions, with and without addition of microsomal enzymes (S9 mix), taking the potential formation of DNA reactive metabolites via xenobiotic biotransformation into account.
(§4) The potential of the test compound to induce gene mutations is assessed by comparing the control with the test compounds treated bacterial cultures.

Data set [8] concerns Salmonella tester strain TA1537. Briefly: Bacterial reverse gene mutation test Ames MPF Penta I, TA1537. The format is cell-based.
Description: as §2, §3, §4

In data set [9] the test system is Salmonella tester strain TA1535. Kind of data set: Bacterial reverse gene mutation test Ames MPF Penta I, TA1535. In kind it is cell-based.
Description: as §2, §3, §4

The test system of data set [10] is E. coli wp2 (E. coli wp2 [pKM101] and E. coli wp2 uvrA, combined exposure). Briefly: Bacterial reverse gene mutation test Ames MPF Penta I, E. coli wp2. The format is cell-based.
Description: as §2, §3, §4

The subject of data set [11] is Salmonella tester strain TA98. Briefly: Bacterial reverse gene mutation test Ames MPF Penta I, TA98. The format is cell-based.
Description: as §2, §3, §4

T2 sequence (Q8WYB5 723-2073 limits assumed): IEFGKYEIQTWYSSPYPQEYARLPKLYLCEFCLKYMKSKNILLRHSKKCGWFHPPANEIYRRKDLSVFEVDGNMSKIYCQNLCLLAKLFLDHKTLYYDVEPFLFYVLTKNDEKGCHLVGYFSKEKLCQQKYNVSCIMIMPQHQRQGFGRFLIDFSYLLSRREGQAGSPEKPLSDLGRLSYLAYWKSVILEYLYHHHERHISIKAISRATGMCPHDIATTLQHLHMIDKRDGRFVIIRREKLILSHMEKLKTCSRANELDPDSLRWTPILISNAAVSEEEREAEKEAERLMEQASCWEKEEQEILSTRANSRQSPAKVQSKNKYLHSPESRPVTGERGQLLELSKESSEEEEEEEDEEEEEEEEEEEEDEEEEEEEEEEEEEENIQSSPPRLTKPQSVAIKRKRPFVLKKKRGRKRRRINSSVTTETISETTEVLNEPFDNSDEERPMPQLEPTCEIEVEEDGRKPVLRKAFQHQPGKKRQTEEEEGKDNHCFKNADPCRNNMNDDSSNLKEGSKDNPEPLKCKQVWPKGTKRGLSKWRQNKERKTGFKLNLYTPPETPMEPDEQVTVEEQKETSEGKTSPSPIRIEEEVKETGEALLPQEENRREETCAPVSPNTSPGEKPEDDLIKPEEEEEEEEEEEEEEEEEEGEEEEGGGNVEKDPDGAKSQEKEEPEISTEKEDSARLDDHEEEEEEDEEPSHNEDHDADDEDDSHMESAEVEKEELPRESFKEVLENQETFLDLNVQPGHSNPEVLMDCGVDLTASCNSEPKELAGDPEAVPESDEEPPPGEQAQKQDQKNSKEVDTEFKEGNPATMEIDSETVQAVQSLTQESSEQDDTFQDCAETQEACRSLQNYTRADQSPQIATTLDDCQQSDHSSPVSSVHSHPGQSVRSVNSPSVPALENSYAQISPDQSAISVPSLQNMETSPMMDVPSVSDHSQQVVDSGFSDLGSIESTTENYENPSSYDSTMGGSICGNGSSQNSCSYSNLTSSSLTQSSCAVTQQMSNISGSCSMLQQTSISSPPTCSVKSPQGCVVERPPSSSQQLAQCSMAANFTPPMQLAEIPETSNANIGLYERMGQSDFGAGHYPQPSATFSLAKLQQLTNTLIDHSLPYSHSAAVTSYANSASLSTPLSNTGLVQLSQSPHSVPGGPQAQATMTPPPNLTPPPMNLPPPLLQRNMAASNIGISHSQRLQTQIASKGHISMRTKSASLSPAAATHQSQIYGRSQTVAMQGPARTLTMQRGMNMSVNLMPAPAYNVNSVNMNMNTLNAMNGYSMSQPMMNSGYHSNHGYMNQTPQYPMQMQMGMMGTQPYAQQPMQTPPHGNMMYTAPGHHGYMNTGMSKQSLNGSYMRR
T1 sequence (Q92794 194-810): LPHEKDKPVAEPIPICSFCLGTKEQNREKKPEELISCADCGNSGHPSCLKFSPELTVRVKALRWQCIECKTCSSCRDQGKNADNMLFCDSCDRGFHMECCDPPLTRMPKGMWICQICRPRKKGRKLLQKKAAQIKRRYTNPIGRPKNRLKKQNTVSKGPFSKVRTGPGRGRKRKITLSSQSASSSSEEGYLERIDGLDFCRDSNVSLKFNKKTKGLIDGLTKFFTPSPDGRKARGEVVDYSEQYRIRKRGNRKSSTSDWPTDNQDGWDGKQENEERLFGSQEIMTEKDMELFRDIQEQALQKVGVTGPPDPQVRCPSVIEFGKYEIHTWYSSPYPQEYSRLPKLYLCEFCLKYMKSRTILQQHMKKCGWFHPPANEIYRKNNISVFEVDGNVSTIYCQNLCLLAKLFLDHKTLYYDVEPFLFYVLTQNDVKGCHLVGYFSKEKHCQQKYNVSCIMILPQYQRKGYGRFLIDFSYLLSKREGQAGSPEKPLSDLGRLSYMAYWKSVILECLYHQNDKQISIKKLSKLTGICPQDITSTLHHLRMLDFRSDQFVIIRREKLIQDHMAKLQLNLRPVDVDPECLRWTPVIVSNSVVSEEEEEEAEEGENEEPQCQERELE

`Cc1cc(C)c2cc(C(=O)NS(=O)(=O)c3cccc4ccc(C)nc34)oc2c1` [Example 21, 4,6-Dimethyl-N-(2-methylquinoline-8-sulfonyl)-1-benzofuran-2-carboxamide]: the EC50 is 3.47e-06 M in [1], 1.61e-06 M in [4] and above 2e-05 M in [5]. Moreover, the figures for the IC50 in data set [2], in data set [3] and in [6] were 1.17e-06 M, 0.0271 µM and 0.0531 µM, respectively.

Consider `CCOc1ccccc1S(=O)(=O)NC(=O)c1cc2c(F)cc(C3CC3)cc2o1` [Example 25, 6-Cyclopropyl-N-(2-ethoxybenzene-1-sulfonyl)-4-fluoro-1-benzofuran-2-carboxamide], for which the EC50 in data set [1] is above 2e-05 M; in data set [4], 6.44e-07 M; in data set [5] it was above 2e-05 M. Also, the “Result of the bacterial reverse gene mutation test Ames MPF Penta I, TA100” value in data set [7] (with addition of S9 mix) and in data set [7] (without addition of S9 mix) was “negative” throughout. Besides, the IC50 was determined as 5.42e-07 M in data set [2] and 0.0284 µM in data set [6]. Further, the “Result of the bacterial reverse gene mutation test Ames MPF Penta I, TA1537” value in [8] (with addition of S9 mix) and in data set [8] (without addition of S9 mix) was “negative” throughout. Besides, the “Result of the bacterial reverse gene mutation test Ames MPF Penta I, TA1535” value in data set [9] (with addition of S9 mix) and in data set [9] (without addition of S9 mix) was “negative” in each case. The “Result of the bacterial reverse gene mutation test Ames MPF Penta I, E. coli wp2” value in [10] (with addition of S9 mix) and in data set [10] (without addition of S9 mix) was “negative” throughout. Further, the “Result of the bacterial reverse gene mutation test Ames MPF Penta I, TA98” value in [11] (with addition of S9 mix) and in data set [11] (without addition of S9 mix) was “negative” throughout.

Turning to `CCC(C)c1ccc2cc(C(=O)NS(=O)(=O)c3ccccc3-c3ccccc3)oc2c1` (stereo not shown) [Example 27, N-([1,1′-biphenyl]-2-sulfonyl)-6-(butan-2-yl)-1-benzofuran-2-carboxamide], the IC50 is above 2e-05 M in data set [2], 2.03 µM in data set [3] and 9.21 µM in data set [6]. For the same molecule, the EC50 in data set [4] and in data set [5] was above 2e-05 M in each case.

For `CC(C)c1ccc2cc(C(=O)NS(=O)(=O)c3ccccc3-c3ccccc3)oc2c1` [Example 54, N-{[1,1′-Biphenyl]-2-sulfonyl}-6-(propan-2-yl)-1-benzofuran-2-carboxamide], the EC50 in [1] is above 2e-05 M; in [4] it was 5.75e-06 M; in [5], above 2e-05 M. Moreover, the results for the IC50 in data set [2], in [3] and in data set [6] were 3.02e-06 M, 0.464 µM and 0.667 µM, respectively.

With `CC(C)c1ccc2cc(C(=O)NS(=O)(=O)c3ccccc3)oc2c1` [Example 56, N-(Benzenesulfonyl)-6-(propan-2-yl)-1-benzofuran-2-carboxamide], the IC50 in data set [2] was 1.52e-05 M; in data set [3], 1.56 µM; in [6], 3.94 µM. For the same molecule, the EC50 in data set [4] and in data set [5] was above 2e-05 M throughout.

For the molecule `CC(C)c1ccc2cc(C(=O)NS(=O)(=O)c3ccccc3Cl)oc2c1` [Example 73, N-(2-chlorobenzenesulfonyl)-6-(propan-2-yl)-1-benzofuran-2-carboxamide], the EC50 is above 2e-05 M in data set [1], 7.08e-06 M in data set [4] and above 2e-05 M in [5]. Besides, the IC50 is 8.69e-06 M in data set [2], 1.35 µM in [3] and 1.78 µM in data set [6].
